Source: PubChem BioAssay (NCI)
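Assay format: 96-well plates, 48-hour exposure. TGI: total growth inhibition.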

Tests used:
Test in all cases: growth of human tumour cells (NCI), 48 h
RPMI-8226 leukemia = tested on: RPMI-8226 leukemia
SF-295 CNS = tested on: SF-295 CNS
MCF7 breast = tested on: MCF7 breast
HT29 colon = tested on: HT29 colon
A498 renal = tested on: A498 renal
UO-31 renal = tested on: UO-31 renal
HCT-15 colon = tested on: HCT-15 colon
NCI-H23 lung = tested on: NCI-H23 lung
HOP-62 NSCLC = tested on: HOP-62 NSCLC
CAKI-1 renal = tested on: CAKI-1 renal
UACC-257 melanoma = tested on: UACC-257 melanoma
SK-MEL-5 melanoma = tested on: SK-MEL-5 melanoma
SK-OV-3 ovarian = tested on: SK-OV-3 ovarian
K-562 leukemia = tested on: K-562 leukemia
KM20L2 colon = tested on: KM20L2 colon

Compound | TGI (RPMI-8226 leukemia) [µM] | TGI (SF-295 CNS) [µM] | TGI (MCF7 breast) [µM] | TGI (HT29 colon) [µM] | TGI (A498 renal) [µM] | TGI (UO-31 renal) [µM] | TGI (HCT-15 colon) [µM] | TGI (NCI-H23 lung) [µM] | TGI (HOP-62 NSCLC) [µM] | TGI (CAKI-1 renal) [µM] | TGI (UACC-257 melanoma) [µM] | TGI (SK-MEL-5 melanoma) [µM] | TGI (SK-OV-3 ovarian) [µM] | TGI (K-562 leukemia) [µM] | TGI (KM20L2 colon) [µM]
CN(C)CCOc1cc2c(c3ccccc13)-c1ccccc1C2=O | 4.27 | 4.42 | 5.6 | 3.44 | 19.3 | 3.15 | 4.19 | 5.24 | 3.95 | 6.31 | 3.17 | 2.96 | 24.6 | 4.7 | 5.3
O=C(O)C(Cc1cccs1)NC(=O)C(F)(F)F (stereo not given) | > 100 | > 100 | > 100 | > 100 | > 100 | > 100 | > 100 | > 100 | > 100 | > 100 | > 100 | > 100 | > 100 | > 100 | > 100
